The numbers were not newly measured in patent publication US11697638B2, “5-methoxy-N,N-dimethyltryptamine crystalline forms” (Small Pharma Ltd, priority 2021, dated 2023), which cites them from elsewhere.

For the data set the following is noted: self-report, uncontrolled setting.

Where two headings read alike, the source gives them in different places.

As for `COc1ccc2[nH]cc(CCN(C)C)c2c1` [5-MeO-DMT, 5-methoxy-N,N-dimethyltryptamine], the “participants with psychiatric diagnoses indicating that their symptoms improved following 5-MeO-DMT use” value runs as follows: (anxiety) 69%; (depression) 77%; (post-traumatic stress disorder) 79%.
